Results: patent publication US11066414B2, “Cot modulators and methods of use thereof” (Gilead Sciences, Inc., priority 2015, dated 2021)
pIC50: −log10 of the molar value.

These compounds were tested against Human Cot (Homo sapiens (Human), UniProt P41279) (assay: High Throughput Cot Biochemical Assay). Settings: IC50 HTRF, Cot HTRF (TR-FRET KinEASE) biochemical assay, 400 μM ATP.
Sequence of Human Cot (P41279 30-397): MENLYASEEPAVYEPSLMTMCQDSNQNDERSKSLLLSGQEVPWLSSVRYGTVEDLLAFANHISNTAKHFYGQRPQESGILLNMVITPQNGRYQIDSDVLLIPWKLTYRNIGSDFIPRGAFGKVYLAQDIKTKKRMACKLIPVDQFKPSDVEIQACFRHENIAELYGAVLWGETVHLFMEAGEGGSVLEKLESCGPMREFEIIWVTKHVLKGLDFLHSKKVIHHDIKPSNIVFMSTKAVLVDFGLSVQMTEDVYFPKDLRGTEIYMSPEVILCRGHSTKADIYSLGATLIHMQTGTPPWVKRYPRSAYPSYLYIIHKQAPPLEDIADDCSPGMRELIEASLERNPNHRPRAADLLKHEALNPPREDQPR

Question: CC(C)(CNc1c(C#N)cnc2c(C#N)cc(N[C@H](c3cn(C45CC(C4)C5)nn3)c3ccc(F)c4ncccc34)cc12)C(F)(F)F [Example 816, (S)-6-(((1-(bicyclo[1.1.1]pentan-1-yl)-1H-1,2,3-triazol-4-yl)(8-fluoroquinolin-5-yl)methyl)amino)-4-((3,3,3-trifluoro-2,2-dimethylpropyl)amino)quinoline-3,8-dicarbonitrile] was tested. Which pIC50 did it give?
Answer: Its pIC50 is 9.00.

Question: With Cc1nc(F)ccc1[C@H](Nc1cc(Cl)c2ncc(C#N)c(NCC(C)(C)C)c2c1)c1nnn(C23CC(C2)C3)c1F [Example 951, (S)-6-(((1-(bicyclo[1.1.1]pentan-1-yl)-5-fluoro-1H-1,2,3-triazol-4-yl)(6-fluoro-2-methylpyridin-3-yl)methyl)amino)-8-chloro-4-(neopentylamino)quinoline-3-carbonitrile] as the compound, how does the pIC50 read?
Answer: The pIC50 was 8.05.

Question: How did the pIC50 turn out when Cc1nc(F)ccc1[C@H](Nc1cc(C#N)c2ncc(C#N)c(NCC(C)(C)C)c2c1)c1nnn(C)c1F [Example 906, (S)-6-(((5-fluoro-1-methyl-1H-1,2,3-triazol-4-yl)(6-fluoro-2-methylpyridin-3-yl)methyl)amino)-4-(neopentylamino)quinoline-3,8-dicarbonitrile] was run?
Answer: The pIC50 was 8.40.

Question: With CC(C)(C)CNc1c(C#N)cnc2c(C#N)cc(N[C@H](c3cn(C4(C(F)(F)F)CC4)nn3)c3csc4cnccc34)cc12 [Example 855, (S)-4-(neopentylamino)-6-((thieno[2,3-c]pyridin-3-yl(1-(1-(trifluoro-methyl)cyclopropyl)-1H-1,2,3-triazol-4-yl)methyl)-amino)quinoline-3,8-dicarbonitrile] as the compound, how does the pIC50 read?
Answer: Its pIC50 is 8.70.

Same assay, conditions: IC50 HTRF, Cot HTRF (TR-FRET) biochemical assay

Question: How did the pIC50 turn out when N#Cc1cnc2c(Cl)cc(N[C@H](c3cn(C4CCNCC4)nn3)c3ccc(Cl)s3)cc2c1Nc1ccc(F)c(Cl)c1 [Example 386, (R)-8-chloro-4-((3-chloro-4-fluoro-phenyl)amino)-6-(((5-chlorothiophen-2-yl)(1-(piperidin-4-yl)-1H-1,2,3-triazol-4-yl)methyl)amino)quinoline-3-carbonitrile] was run?
Answer: Its pIC50 is 7.44.

Question: CC(C)(C)CNc1c(C#N)cnc2c(Cl)cc(N[C@H](c3cn(C4(C)CC4)nn3)c3cccc4ncsc34)cc12 [Example 434, (S)-6-((benzo[d]thiazol-7-yl(1-(1-methylcyclopropyl)-1H-1,2,3-triazol-4-yl)methyl)amino)-8-chloro-4-(neopentylamino)quinoline-3-carbonitrile] was tested. Which pIC50 did it give?
Answer: Its pIC50 is 8.70.

Question: With N#Cc1cnc2c(Cl)cc(N[C@H](c3cn(C4CCNCC4)nn3)c3sccc3Cl)cc2c1Nc1ccc(F)c(Cl)c1 [Example 387, (R)-8-chloro-4-((3-chloro-4-fluoro-phenyl)amino)-6-(((3-chlorothiophen-2-yl)(1-(piperidin-4-yl)-1H-1,2,3-triazol-4-yl)methyl)amino)quinoline-3-carbonitrile] as the compound, how does the pIC50 read?
Answer: The pIC50 was 7.74.

Question: With CC(C)(C)CNc1c(C#N)cnc2c(Cl)cc(N[C@H](c3cn(C4CC4)nn3)c3csc4c3CCN(C3COC3)C4)cc12 [Example 80, (S)-8-chloro-6-(((1-cyclopropyl-1H-1,2,3-triazol-4-yl)(6-(oxetan-3-yl)-4,5,6,7-tetrahydrothieno[2,3-c]pyridin-3-yl)methyl)amino)-4-(neopentylamino)-quinoline-3-carbonitrile] as the compound, how does the pIC50 read?
Answer: The pIC50 was 9.00.

Question: How did the pIC50 turn out when Cn1c(=O)ccc2c([C@H](Nc3cc(Cl)c4ncc(C#N)c(NCC(C)(C)C)c4c3)c3cn(C45CC(C4)C5)nn3)cccc21 [Example 786, (S)-6-(((1-(bicyclo[1.1.1]pentan-1-yl)-1H-1,2,3-triazol-4-yl)(1-methyl-2-oxo-1,2-dihydroquinolin-5-yl)methyl)amino)-8-chloro-4-(neopentylamino)quinoline-3-carbonitrile] was run?
Answer: The pIC50 was 8.30.

Question: How did the pIC50 turn out when CCN1CC[C@@H](n2cc(C(Nc3cc(Cl)c4ncc(C#N)c(Nc5ccc(F)c(Cl)c5)c4c3)c3cccnc3)nn2)C1 (stereo partly drawn) [Example 402, 8-chloro-4-((3-chloro-4-fluoro-phenyl)amino)-6-(((1-((R)-1-ethylpyrrolidin-3-yl)-1H-1,2,3-triazol-4-yl)(pyridin-3-yl)methyl)-amino)quinoline-3-carbonitrile] was run?
Answer: Its pIC50 is 7.72.

Question: With Cc1nc(F)ccc1[C@H](Nc1cc(Cl)c2ncc(C#N)c(NCC(C)(C)C)c2c1)c1nnn(C2CC2)c1C#N [Example 686, (S)-8-chloro-6-(((5-cyano-1-cyclopropyl-1H-1,2,3-triazol-4-yl)(6-fluoro-2-methylpyridin-3-yl)methyl)amino)-4-(neopentylamino)quinoline-3-carbonitrile] as the compound, how does the pIC50 read?
Answer: The pIC50 was 8.40.

Question: How did the pIC50 turn out when Cn1ccc2c([C@H](Nc3cc(Cl)c4ncc(C#N)c(NCC(C)(C)C(F)(F)F)c4c3)c3cn(C4(C5CC5)CC4)nn3)cccc2c1=O [Example 783, (S)-6-(((1-([1,1′-bi(cyclopropan)]-1-yl)-1H-1,2,3-triazol-4-yl)(2-methyl-1-oxo-1,2-dihydroisoquinolin-5-yl)methyl)amino)-8-chloro-4-((3,3,3-trifluoro-2,2-dimethylpropyl)amino)quinoline-3-carbonitrile] was run?
Answer: Its pIC50 is 8.70.

Question: With COCCn1cc([C@@H](Nc2cc(Cl)c3ncc(C#N)c(Nc4ccc(F)c(Cl)c4)c3c2)c2cc(C#N)cs2)nn1 [Example 337, (R)-8-chloro-4-((3-chloro-4-fluorophenyl)amino)-6-(((4-cyanothiophen-2-yl)(1-(2-methoxy-ethyl)-1H-1,2,3-triazol-4-yl)methyl)amino)quinoline-3-carbonitrile] as the compound, how does the pIC50 read?
Answer: The pIC50 was 7.80.

Question: With CCN1CCC(n2cc([C@@H](Nc3cc(Cl)c4ncc(C#N)c(Nc5ccc(F)c(Cl)c5)c4c3)c3ccsc3)nn2)CC1 [Example 392, (S)-8-chloro-4-((3-chloro-4-fluoro-phenyl)amino)-6-(((1-(1-ethylpiperidin-4-yl)-1H-1,2,3-triazol-4-yl)(thiophen-3-yl)methyl)amino)quinoline-3-carbonitrile] as the compound, how does the pIC50 read?
Answer: Its pIC50 is 8.52.

Question: CC(C)(C)CNc1c(C#N)cnc2c(C#N)cc(N[C@H](c3cn(C4(C(F)(F)F)CC4)nn3)c3cccc4ccncc34)cc12 [Example 535, (S)-6-((isoquinolin-8-yl(1-(1-(trifluoro-methyl)cyclopropyl)-1H-1,2,3-triazol-4-yl)methyl)amino)-4-(neopentylamino)-quinoline-3,8-dicarbonitrile] was tested. Which pIC50 did it give?
Answer: Its pIC50 is 8.70.

Question: With CC(C)(C)CNc1c(C#N)cnc2c(Cl)cc(N[C@H](c3cn(C4(C(F)(F)F)CC4)nn3)c3ccc(F)c4ncccc34)cc12 [Example 617, (S)-8-chloro-6-(((8-fluoroquinolin-5-yl)(1-(1-(trifluoromethyl)cyclopropyl)-1H-1,2,3-triazol-4-yl)methyl)amino)-4-(neopentylamino)quinoline-3-carbonitrile] as the compound, how does the pIC50 read?
Answer: The pIC50 was 8.05.

Question: N#Cc1cnc2c(Cl)cc(N[C@H](c3cn(CCO)nn3)c3cnc(Cl)cc3Cl)cc2c1Nc1ccc(F)c(Cl)c1 [Example 330, (S)-8-chloro-4-((3-chloro-4-fluorophenyl)amino)-6-(((4,6-dichloropyridin-3-yl)(1-(2-hydroxy-ethyl)-1H-1,2,3-triazol-4-yl)methyl)-amino)quinoline-3-carbonitrile] was tested. Which pIC50 did it give?
Answer: Its pIC50 is 7.23.

Question: With Cn1ccc2c([C@H](Nc3cc(Cl)c4ncc(C#N)c(NCC(C)(C)C)c4c3)c3cn(C4(C(F)(F)F)CC4)nn3)cccc2c1=O [Example 618, (S)-8-chloro-6-(((2-methyl-1-oxo-1,2-dihydroisoquinolin-5-yl)(1-(1-(trifluoromethyl)cyclopropyl)-1H-1,2,3-triazol-4-yl)methyl)amino)-4-(neopentylamino)quinoline-3-carbonitrile] as the compound, how does the pIC50 read?
Answer: Its pIC50 is 8.52.

Question: Cc1nc(F)ccc1[C@H](Nc1cc(Cl)c2ncc(C#N)c(NCC(C)(C)C)c2c1)c1cn(C2(C(N)=O)CCC2)nn1 [Example 478, (S)-1-(4-(((8-chloro-3-cyano-4-(neopentylamino)quinolin-6-yl)amino)(6-fluoro-2-methylpyridin-3-yl)methyl)-1H-1,2,3-triazol-1-yl)cyclobutane-1-carboxamide] was tested. Which pIC50 did it give?
Answer: The pIC50 was 9.00.

Question: With N#Cc1cnc2c(Cl)cc(NC(c3cccnc3)c3cn([C@@H]4CCNC4)nn3)cc2c1Nc1ccc(F)c(Cl)c1 (stereo partly drawn) [Example 401, 8-chloro-4-((3-chloro-4-fluoro-phenyl)amino)-6-((pyridin-3-yl(1-((R)-pyrrolidin-3-yl)-1H-1,2,3-triazol-4-yl)methyl)amino)quinoline-3-carbonitrile] as the compound, how does the pIC50 read?
Answer: Its pIC50 is 8.00.

Question: [2H]C(Nc1cc(Cl)c2ncc(C#N)c(NCC(C)(C)C)c2c1)(c1cn(C2CC2)nn1)c1ccc(F)nc1C (stereo not shown) [Example 111, 8-chloro-6-(((1-cyclopropyl-1H-1,2,3-triazol-4-yl)(6-fluoro-2-methylpyridin-3-yl)methyl-d)amino)-4-(neopentylamino)quinoline-3-carbonitrile] was tested. Which pIC50 did it give?
Answer: The pIC50 was 8.70.

Question: How did the pIC50 turn out when CC(C)(C)OC(=O)N1CCC(n2cc([C@@H](Nc3cc(Cl)c4ncc(C#N)c(Nc5ccc(F)c(Cl)c5)c4c3)c3ccsc3)nn2)CC1 [Example 394, tert-butyl (S)-4-(4-(((8-chloro-4-((3-chloro-4-fluorophenyl)amino)-3-cyanoquinolin-6-yl)amino)(thiophen-3-yl)methyl)-1H-1,2,3-triazol-1-yl)piperidine-1-carboxylate] was run?
Answer: The pIC50 was 6.83.

Same assay, conditions: read-out: IC50 HTRF; Cot HTRF (TR-FRET) biochemical assay

Question: With CC(C)(C)N1CCC(n2cc([C@@H](Nc3cc(Cl)c4ncc(C#N)c(NC5CCCCC5)c4c3)c3cccnc3)nn2)CC1 [Example 287, (S)-6-(((1-(1-(tert-butyl)piperidin-4-yl)-1H-1,2,3-triazol-4-yl)(pyridin-3-yl)methyl)amino)-8-chloro-4-(cyclohexylamino)quinoline-3-carbonitrile] as the compound, how does the pIC50 read?
Answer: Its pIC50 is 7.70.

Question: With Cn1cc(C(Nc2cc(Cl)c3ncc(C#N)c(Nc4ccc(F)c(Cl)c4)c3c2)c2cn(C3CCN(C(C)(C)C)CC3)nn2)nn1 (stereo not shown) [Example 399, 6-(((1-(1-(tert-butyl)piperidin-4-yl)-1H-1,2,3-triazol-4-yl)(1-methyl-1H-l, 2,3-triazol-4-yl)methyl)amino)-8-chloro-4-((3-chloro-4-fluorophenyl)-amino)quinoline-3-carbonitrile] as the compound, how does the pIC50 read?
Answer: The pIC50 was 7.24.

Question: How did the pIC50 turn out when Cn1cc([C@H](Nc2cc(Cl)c3ncc(C#N)c(Nc4ccc(F)c(Cl)c4)c3c2)c2cccnc2)nn1 [Example 343, (R)-8-chloro-4-((3-chloro-4-fluorophenyl)amino)-6-(((1-methyl-1H-1,2,3-triazol-4-yl)(pyridin-3-yl)methyl)amino)quinoline-3-carbonitrile] was run?
Answer: Its pIC50 is 6.30.
